Experimental data as given in patent publication US20250042876A1, “HERBICIDAL PYRAZOLE PYRIMIDINE COMPOUNDS” (SYNGENTA CROP PROTECTION AG, priority 2021, published 2025).

Experiments:
Assay type in all cases: in vivo
Conditions in all cases: 250 g/ha, evaluated after 13 days
[1] = test system: Setaria faberi (SETFA); experiment: Pre-emergence herbicidal test, glasshouse
Method: (§1) Seeds of a variety of test species are sown in standard soil in pots Amaranthus palmeri (AMAPA), Amaranthus retoflexus (AMARE), Setaria faberi (SETFA), Echinochloa crus-galli (ECHCG), Ipomoea hederacea (IPOHE)). After cultivation for one day (pre-emergence) or after 8 days cultivation (post-emergence) under controlled conditions in a glasshouse (at 24/16° C., day/night; 14 hours light; 65% humidity), the plants are sprayed with an aqueous spray solution derived from the formulation of the technical active ingredient in acetone/water (50:50) solution containing 0.5% Tween 20 (polyoxyethelyene sorbitan monolaurate, CAS RN 9005-64-5). Compounds are applied at 250 g/ha unless otherwise stated. The test plants are then grown in a glasshouse under controlled conditions in a glasshouse (at 24/16° C., day/night; 14 hours light; 65% humidity) and watered twice daily. After 13 days for pre and post-emergence, the test is evaluated for the percentage damage caused to the plant. The biological activities are shown in the following table on a five-point scale (5=81-100%; 4=61-80%; 3=41-60%; 2=21-40%; 1=0-20%).

[2] = test system: Echinochloa crus-galli (ECHCG); experiment: Pre-emergence herbicidal test, glasshouse
Method: as §1

[3] = test system: Amaranthus palmeri (AMAPA); experiment: Pre-emergence herbicidal test, glasshouse
Method: as §1

[4] = test system: Ipomoea hederacea (IPOHE); experiment: Pre-emergence herbicidal test, glasshouse
Method: as §1

[5] = test system: Amaranthus retoflexus (AMARE); experiment: Pre-emergence herbicidal test, glasshouse
Method: as §1

[6] = test system: Setaria faberi (SETFA); experiment: Post-emergence herbicidal test, glasshouse
Method: as §1

[7] = test system: Echinochloa crus-galli (ECHCG); experiment: Post-emergence herbicidal test, glasshouse
Method: as §1

[8] = test system: Amaranthus palmeri (AMAPA); experiment: Post-emergence herbicidal test, glasshouse
Method: as §1

[9] = test system: Ipomoea hederacea (IPOHE); experiment: Post-emergence herbicidal test, glasshouse
Method: as §1

[10] = test system: Amaranthus retoflexus (AMARE); experiment: Post-emergence herbicidal test, glasshouse
Method: as §1

Structure (SMILES)	SETFA percentage damage caused to the plant (five-point scale) [1]	ECHCG percentage damage caused to the plant (five-point scale) [2]	AMAPA percentage damage caused to the plant (five-point scale) [3]	IPOHE percentage damage caused to the plant (five-point scale) [4]	AMARE percentage damage caused to the plant (five-point scale) [5]	SETFA percentage damage caused to the plant (five-point scale) [6]	ECHCG percentage damage caused to the plant (five-point scale) [7]	AMAPA percentage damage caused to the plant (five-point scale) [8]	IPOHE percentage damage caused to the plant (five-point scale) [9]	AMARE percentage damage caused to the plant (five-point scale) [10]
Cc1cnc(Cc2cc(C(F)(F)F)nn2-c2ccc(C(F)(F)F)cc2)nc1 [Compound 1.011]	5 (5=81-100%)	5 (5=81-100%)	5 (5=81-100%)	5 (5=81-100%)	5 (5=81-100%)	5 (5=81-100%)	5 (5=81-100%)	5 (5=81-100%)	3 (3=41-60%)	5 (5=81-100%)
N#Cc1cnc(Cc2cc(C(F)(F)F)nn2-c2ccc(C(F)(F)F)cc2)nc1 [Compound 1.012]	5 (5=81-100%)	5 (5=81-100%)	5 (5=81-100%)	5 (5=81-100%)	5 (5=81-100%)	5 (5=81-100%)	4 (4=61-80%)	5 (5=81-100%)	4 (4=61-80%)	5 (5=81-100%)
FC(F)c1cc(Cc2ncc(Cl)cn2)n(-c2ccc(C(F)(F)F)cc2)n1 [Compound 1.016]	5 (5=81-100%)	5 (5=81-100%)	5 (5=81-100%)	5 (5=81-100%)	5 (5=81-100%)	5 (5=81-100%)	5 (5=81-100%)	5 (5=81-100%)	3 (3=41-60%)	5 (5=81-100%)
FC(F)c1cc(Cc2ncc(Cl)cn2)n(-c2ccc(Cl)nc2)n1 [Compound 1.035]	5 (5=81-100%)	4 (4=61-80%)	5 (5=81-100%)	4 (4=61-80%)	5 (5=81-100%)	3 (3=41-60%)	3 (3=41-60%)	4 (4=61-80%)	4 (4=61-80%)	4 (4=61-80%)
